# Measurements: article PMC6856131, “Pathways to defense metabolites and evading fruit bitterness in genus Solanum evolved through 2-oxoglutarate-dependent dioxygenases” (Nature Communications, 2019)
# Experiments:
# GAME31 (tomato) = molecular target: T1, GAME31 (tomato) (Solanum lycopersicum, UniProt A0A6F8PJG0); format: biochemical; conditions: alpha-ketoglutarate 10 mM, ascorbate 10 mM, FeSO4 500 uM, pH 7.5, 30 °C, 3 h
# T1 construct: gene 23DOX
# ScGAME32-8380-1-2 = test system: T2, ScGAME32-8380-1-2; assay: hydroxylation assay, UPLC-qTOF-MS; format: biochemical, Solanum chacoense; conditions: alpha-ketoglutarate 10 mM, ascorbate 10 mM, FeSO4 500 uM, pH 7.5, 30 °C, 3 h; standard contains isomer impurities
# T2 construct: pET28b, E. coli BL21 (DE3), Ni-NTA purified
# T2 sequence (DOC6856131_7 entry or part of it): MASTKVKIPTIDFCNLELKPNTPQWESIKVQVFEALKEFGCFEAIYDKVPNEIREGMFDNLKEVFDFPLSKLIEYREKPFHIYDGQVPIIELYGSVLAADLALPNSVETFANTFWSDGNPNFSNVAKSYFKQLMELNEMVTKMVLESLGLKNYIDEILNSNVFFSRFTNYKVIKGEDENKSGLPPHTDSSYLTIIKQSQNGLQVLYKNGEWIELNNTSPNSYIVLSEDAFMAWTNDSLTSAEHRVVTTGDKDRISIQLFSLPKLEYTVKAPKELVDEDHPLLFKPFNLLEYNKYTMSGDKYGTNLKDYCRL
# ScGAME32-8380-1-1 = test system: T3, ScGAME32-8380-1-1; assay: hydroxylation assay, UPLC-qTOF-MS; format: biochemical, Solanum chacoense; conditions: alpha-ketoglutarate 10 mM, ascorbate 10 mM, FeSO4 500 uM, pH 7.5, 30 °C, 3 h; standard contains isomer impurities
# T3 construct: pET28b, E. coli BL21 (DE3), Ni-NTA purified
# T3 sequence (DOC6856131_6 entry or part of it): as the sequence (DOC6856131_7 entry or part of it) above, with L288M, N292L, Y301S counted along it
# T1 sequence (A0A6F8PJG0 entry or part of it): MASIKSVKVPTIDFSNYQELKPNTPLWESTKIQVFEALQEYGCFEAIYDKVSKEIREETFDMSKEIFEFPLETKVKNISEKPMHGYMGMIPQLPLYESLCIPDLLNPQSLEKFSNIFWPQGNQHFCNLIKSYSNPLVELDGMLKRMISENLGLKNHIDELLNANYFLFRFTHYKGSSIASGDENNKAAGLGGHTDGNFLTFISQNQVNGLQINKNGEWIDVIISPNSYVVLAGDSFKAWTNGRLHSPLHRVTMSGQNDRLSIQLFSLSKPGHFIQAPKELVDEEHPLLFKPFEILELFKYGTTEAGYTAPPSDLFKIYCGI
SMILES,"hydroxylation assay, UPLC-qTOF-MS (GAME31 (tomato))","hydroxylation assay, UPLC-qTOF-MS (ScGAME32-8380-1-2)","hydroxylation assay, UPLC-qTOF-MS (ScGAME32-8380-1-1)"
C[C@@H]1CC[C@@]2(NC1)O[C@H]1C[C@H]3[C@@H]4CC=C5C[C@@H](O[C@@H]6O[C@H](CO)[C@@H](O[C@@H]7O[C@@H](C)[C@H](O)[C@@H](O)[C@H]7O)[C@H](O)[C@H]6O[C@@H]6O[C@@H](C)[C@H](O)[C@@H](O)[C@H]6O)CC[C@]5(C)[C@H]4CC[C@]3(C)[C@H]1[C@@H]2C [α-solamargine],"hydroxy-solasodine, and hydroxy-solamargine from dehydrotomatine, solasodine, and α-solamargine, respectively",–,–
C[C@H]1CC[C@@H]2[C@@H](C)[C@H]3[C@H](C[C@H]4[C@@H]5CC=C6C[C@@H](O[C@@H]7O[C@H](CO)[C@@H](O[C@@H]8O[C@@H](C)[C@H](O)[C@@H](O)[C@H]8O)[C@H](O)[C@H]7O[C@@H]7O[C@@H](C)[C@H](O)[C@@H](O)[C@H]7O)CC[C@]6(C)[C@H]5CC[C@]34C)N2C1 [α-chaconine],–,Incubation of ScGAME32-8380-1-1 or ScGAME32-8380-1-2 with α-chaconine and α-solanine resulted in the formation,Incubation of ScGAME32-8380-1-1 or ScGAME32-8380-1-2 with α-chaconine and α-solanine resulted in the formation
